Patent US20220064238A1, “Methods And Compositions For Modifying Transcription Factor Activity by Targeting The Human Mediator Complex Using Cell Penetrating Memetic Peptides And Methods of Treating Cancer Using The Same” (The Regents of the University of Colorado, a body corporate, priority 2020, published 2022)
Bridge positions count the residues as written; N and C are the ends. Square brackets hold non-standard residues; d marks the D form. Peptide text beside a SMILES is read from it. PEG6 = NCCOCCOCCOCCOCCOCCOCCC(=O)O; R8 = C=CCCCCCC[C@@](C)(N)C(=O)O; S5 = C=CCCC[C@](C)(N)C(=O)O

How the values were obtained:
[1] = system: pol II occupancy at the p21 locus; experiment: ChIP of RNA polymerase II occupancy at CDKN1A (p21); format: cell-based; conditions: 3 h post-Nutlin, Ser5-phosphorylated pol II ChIP
Text: FIGS. 13A-B. Summary of ChIP experiments, showing that RNA polymerase II occupancy at the p53 target gene CDKN1A (p21) is reduced in cells treated with the bivalent peptide (peptide). A) Time course following Nutlin induction, to determine ideal time point to probe pol II occupancy at the p21 locus. […] However, pol II occupancy is reduced in cells treated with the bivalent peptide. […] Pol II phosphorylated at serine-5 of its C-terminal domain was used for ChIP analysis, because this is a proxy for initiating pol II at gene promoters (start sites). Data represent biological triplicates. Similar results were observed genome-wide, using ChIP-seq, although the timing of induction across p53 target genes will vary (data not shown).

[2] = molecular target: T1, p53-activated transcription (Gal4-p53AD, Mediator) (Homo sapiens, UniProt Q9NVC6); experiment: In vitro transcription on naked DNA templates, p53-activated (+Gal4-p53AD); format: biochemical; conditions: 500 nM peptide
T1 construct: made in house
Text: To screen peptides for the ability to selectively block p53-dependent transcription, we required an assay that enabled p53-dependent activation but that could also support basal (i.e. activator-independent) transcription. The present inventors had previously established an in vitro transcription assay (using highly purified human factors (FIG. 1A). A key feature of this assay was that both activated and basal transcription could be reconstituted on naked DNA templates (i.e. DNA templates not assembled into chromatin). To adapt this assay for purposes of measuring basal vs. p53-activated transcription, we generated templates with Gal4 DNA binding sites upstream of the adenovirus major late promoter sequence (FIG. 5A, B). Upon titration of a Gal4 DNA Binding Domain (DBD)-p53 Activation Domain (AD; residues 1-70) fusion protein into this system, we observed pol II-dependent transcription that was dependent on p53AD and Mediator (FIG. 5C). Reactions containing Gal4-p53AD generally produced about two- to four-fold more transcripts compared to reactions with no activator (FIG. 5C). Because experiments without Gal4-p53AD produced a low level of “basal” transcription that could be quantitated, this system allowed assessment of both p53-activated and basal transcription. […]

In the case of `CC[C@H](C)[C@H](NC(=O)[C@H](CC(=O)O)NC(=O)[C@H](CC(=O)O)NC(=O)[C@@H]1CCCN1C(=O)[C@H](CO)NC(=O)[C@H](CC(C)C)NC(=O)CCOCCOCCOCCOCCOCCOCCNC(=O)[C@H](CCCNC(=N)N)NC(=O)[C@H](CCCNC(=N)N)NC(=O)[C@]1(C)CCCC=CCCCCCC[C@@](C)(NC(=O)[C@H](Cc2ccccc2)NC(=O)[C@H](CCCNC(=N)N)NC(=O)[C@H](CCC(=O)O)NC(=O)[C@H](CCC(N)=O)NC(=O)[C@H](CO)NC(=O)[C@H](CCCNC(=N)N)NC(C)=O)C(=O)N[C@@H](CC(=O)O)C(=O)N[C@@H](CC(C)C)C(=O)N[C@@H](Cc2c[nH]c3ccccc23)C(=O)N[C@@H](CCCCN)C(=O)N[C@@H](CCCNC(=N)N)C(=O)N[C@@H](CC(C)C)C(=O)N1)C(=O)N[C@@H](CCC(=O)O)C(=O)N[C@@H](CCC(N)=O)C(=O)N[C@@H](Cc1c[nH]c2ccccc12)C(=O)N[C@@H](Cc1ccccc1)C(=O)N[C@H](C(=O)N[C@@H](CCC(=O)O)C(=O)N[C@@H](CC(=O)O)C(N)=O)[C@@H](C)O` [bivalent peptide] (Ac-RSQERF[R8]DLWKRL[S5]RR[PEG6]LSPDDIEQWFTED-NH2; staple 7-14; N-terminus assumed), the “pol II occupancy at the p21 locus in peptide-treated cells” value [1] is reported as “reduced” and the “inhibition of p53-activated transcription at 500 nM” value [2] is reported as “inhibited”.
